Source: patent US11723934B2, “Compositions and methods for the induction of CD8+ T-cells” (Keio University, priority 2018, dated 2023)
Entries after “also recorded” stand apart in the source; their conditions may differ.

System: IFN+CD8+ T cells
Test: GF mice inoculated with human faecal samples or mouse B5 caecal contents, with or without antibiotics
Type: in vivo
Conditions: antibiotics via drinking water or chloroform-treated caecal contents
Excerpt: Next, it was investigated whether the human gut microbiota contained microbes which were able to induce IFN+CD8+ T cells (FIG. 4). Stool samples were collected from six healthy human volunteers (A˜F) (FIG. 5). The samples were individually administered orally into germ free […] mice kept in sterile isolators (five or six mice per group). Four weeks after oral inoculation of stool samples, mice were sacrificed, and small intestine and colons were harvested and investigated for IFN+CD8+ T-cells by FACS.
The mice were then orally administrated drinking water with or without Ampicillin, Metronidazole, Streptomycin or Tylosin (five mice per group) (FIG. 10). Alternatively, cecal contents of mouse B #5 were treated with 3% chloroform and orally inoculated into another five germ-free mice (‘B #5+Chrolo’). […] B #5 microbiota.
Human faecal samples were collected at the RIKEN institute and Keio University according to the study protocol approved by the institutional review board. Informed consent was obtained from each subject. Faecal samples and mouse B5 caecal contents were suspended in equal volume (w/v) of PBS containing 20% glycerol/PBS, snap-frozen in liquid nitrogen, and stored at −80° C. until use. The frozen stocks were thawed, suspended in TS broth, filtered through a 100 µm cell strainer, and orally inoculated into GF mice (approximately 5-60 mg/250 μL, per mouse). After 24 hours of inoculation, some mice were treated with ampicillin (1 g/L), metronidazole (1 g/L), tylosin (0.5 g/L) or streptomycin (0.5 g/L) via the drinking water. For chloroform treatment of B5 caecal contents, the caecal content suspension was mixed with chloroform (final concentration 3%) and incubated in a shaking water bath for 60 min followed by evaporation of chloroform via bubbling with N2 gas for 30 min. To isolate IFN+[…] T cell-inducing bacterial strains, caecal contents from GF+B5-Amp2 and GF+B5-Amp3 mice were serially dilated with PBS and seeded onto nonselective and selective agar plates (GAM, CM0151, and BBE). After culture under anaerobic conditions (80% N2, 10% H2, 10% CO2) in an anaerobic chamber (Coy Laboratory Products) at 37° C. for 2 to 4 days, individual colonies were picked, and the 16S rRNA gene region was amplified with universal primers (27F: 5′-[…]-3′ (SEQ ID NO:12), 1492R: 5′-[…]-3′ (SEQ ID NO:13)) and sequenced. Individual isolates in the culture collection were grouped as “strains” if their 16S rRNA gene sequences had 100% identity. The resulting strain sequences were compared to those in the RDP database and to OTUs observed in caecal samples from GF+B5−Amp2 and GF+B5−Amp3 to determine closely related species or strains and their corresponding OTUs. To prepare a bacterial mixture, bacterial strains were individually grown in GAM, CM0149, or EG both to confluence and equal volumes of media were mixed. […] The mixture of isolates was orally administered to GF mice (approximately 1-2×10^8 CFU of each strain in 250 μL medium per mouse). All mice receiving a given mixture of bacterial strains were maintained in a single gnotobiotic isolator. For administration of heat-killed bacteria, 11 strains cultured individually for 3 days were mixed, washed with autoclaved water, heat-killed at 121° C. for 30 min, and given to GF mice via the drinking water (2-10×10^7 equivalent CFU of each strain per 1 mL) for 4 weeks. C57BL/6 GF mice (6-12 weeks old) were used and analysed 3-4 weeks after bacterial colonization unless otherwise indicated.

SMILES	effect of treatment on IFN+CD8+ T cell induction by mouse B5 microbiota	effect of treatment on IFN+CD8+ T cell induction by mouse B5 microbiota (listed as Amp)	effect of treatment on IFN+CD8+ T cell induction by mouse B5 microbiota (listed as Chlo)
CC1(C)S[C@@H]2[C@H](NC(=O)[C@H](N)c3ccccc3)C(=O)N2[C@H]1C(=O)O [Ampicillin, ampicillin]	enhanced induction	enhanced the induction of IFN+CD8 T cells; also recorded: enhanced the observed induction	
Cc1ncc([N+](=O)[O-])n1CCO [MNZ, metronidazole]	substantial decrease in IFN+CD8 T cell induction		
[H]/N=C(/N)N[C@H]1[C@H](O)[C@@H](O)[C@H](O[C@@H]2O[C@@H](C)[C@](O)(C=O)[C@H]2O[C@@H]2O[C@@H](CO)[C@H](O)[C@@H](O)[C@@H]2NC)[C@@H](N/C(N)=N\[H])[C@@H]1O [STM, streptomycin]	substantial decrease in IFN+CD8 T cell induction		
CC[C@H]1OC(=O)C[C@@H](O)[C@H](C)[C@@H](O[C@@H]2O[C@H](C)[C@@H](O[C@H]3C[C@@](C)(O)[C@@H](O)[C@H](C)O3)[C@H](N(C)C)[C@H]2O)[C@@H](CC=O)C[C@@H](C)C(=O)/C=C/C(C)=C/[C@@H]1CO[C@@H]1O[C@H](C)[C@@H](O)[C@@H](OC)[C@H]1OC [Tyl, tylosin]	substantial decrease in IFN+CD8 T cell induction		
ClC(Cl)Cl [chloroform]	reduced the induction capability; also recorded: abrogated induction altogether		abrogated it altogether
